For two molecules, Activity results are on record in ChEMBL document CHEMBL3797050, “Erinacine S, a Rare Sesterterpene from the Mycelia of Hericium erinaceus” (2016).

Activity calls are given as the source filed them. The rule behind the calls is not given here.

Experiment [1] has as its system Mus musculus. Put plainly: Increase in insulin degrading enzyme in cerebral cortex of APPswe/PSIdeltaE9 double transgenic C57BL/6J mouse at 30 mg/kg/day administered via oral gavage for 30 days by Western blot analysis. The format is functional. Background: A western blot detects proteins with antibodies after separation by electrophoresis.
For experiment [2], the system named is Mus musculus. Put plainly: Effect on neprilysin levels in cerebral cortex of APPswe/PSIdeltaE9 double transgenic C57BL/6J mouse at 30 mg/kg/day administered via oral gavage for 30 days by Western blot analysis. Format: functional, organism-based.
For experiment [3], the system named is Mus musculus. The experiment in a line: Decrease in amyloid plaque burden in cerebral cortex of APPswe/PSIdeltaE9 double transgenic C57BL/6J mouse at 30 mg/kg/day administered via oral gavage for 30 days by AB10 staining based immunohistochemical assay. More on the design: scale not given: the % may be the effect or the level left. Format: functional.
Experiment [4] deals with Mus musculus. Put plainly: Increase in nerve growth factor levels in cerebral cortex of APPswe/PSIdeltaE9 double transgenic C57BL/6J mouse at 30 mg/kg/day administered via oral gavage for 30 days. The format is functional, organism-based.

Take `CC(C)C1=C2[C@H]3CCC4=C(O)C(=O)[C@@]5(O)CO[C@H]6O[C@@H]([C@@H]4[C@]65O)[C@]3(C)CC[C@@]2(C)CC1`: the Activity in the experiment on Mus musculus [1] came to 141.1%; with Mus musculus [3], 38.1%. Besides, the result with Mus musculus [2] and in the experiment with Mus musculus [4] was inactive.

`CC(C)C1=C2C3=CC=C(C=O)C[C@H](O[C@@H]4OC[C@@H](O)[C@H](O)[C@H]4O)[C@]3(C)CC[C@@]2(C)CC1`: the Activity in the experiment with Mus musculus [1] is recorded as 130.5%; in the experiment with Mus musculus [3], 40.2%. For the same molecule, the outcome in the experiment with Mus musculus [2] and in the experiment with Mus musculus [4] was inactive.
